In ChEMBL document CHEMBL4382208, “Design, synthesis and biological evaluation of novel 2-sulfonylindoles as potential anti-inflammatory therapeutic agents for treatment of acute lung injury” (Eur J Med Chem, 2018):
Calls of active or inactive are those of the source. No cut-off for these calls is given here.

Columns and labels:
Peritoneal macrophage [1] = assay: Antiinflammatory activity in mouse primary peritoneal macrophages assessed as inhibition of LPS-induced TNF-alpha production at 10 uM preincubated for 30 mins followed by LPS addition and measured after 24 hrs by ELISA relative to control; assay type: functional
Peritoneal macrophage [2] = assay: Cytotoxicity against mouse primary peritoneal macrophages assessed as reduction in cell viability at 10 uM after 24 hrs by MTT assay; assay type: cell-based
Peritoneal macrophage [3] = assay: Antiinflammatory activity in mouse primary peritoneal macrophages assessed as inhibition of LPS-induced IL-6 production at 10 uM preincubated for 30 mins followed by LPS addition and measured after 24 hrs by ELISA relative to control; assay type: functional
Peritoneal macrophage [4] = assay: Antiinflammatory activity in mouse primary peritoneal macrophages assessed as inhibition of LPS-induced IL-6 production preincubated for 30 mins followed by LPS addition and measured after 24 hrs by ELISA; assay type: functional, cell-based
Peritoneal macrophage [5] = assay: Antiinflammatory activity in mouse primary peritoneal macrophages assessed as inhibition of LPS-induced TNF-alpha production preincubated for 30 mins followed by LPS addition and measured after 24 hrs by ELISA; assay type: functional, cell-based
Mus musculus [6] = assay: Antiinflammatory activity in C57BL/6 mouse assessed as inhibition of LPS-induced TNF-alpha level in bronchoalveolar lavage fluid at 10 to 20 mg/kg, ip pretreated for 30 mins followed by LPS addition measured after 6 hrs; assay type: functional, organism-based
Mus musculus [7] = assay: Antiinflammatory activity in C57BL/6 mouse assessed as inhibition of LPS-induced total number of cells in bronchoalveolar lavage fluid at 10 to 20 mg/kg, ip pretreated for 30 mins followed by LPS addition measured after 6 hrs by Giemsa staining-based assay; assay type: functional, organism-based
Peritoneal macrophage [8] = assay: Antiinflammatory activity in mouse primary peritoneal macrophages assessed as inhibition of LPS-induced IL-1beta mRNA expression at 5 to 10 uM by RT-qPCR analysis; assay type: functional, cell-based
Mus musculus [9] = assay: Antiinflammatory activity in C57BL/6 mouse assessed as inhibition of LPS-induced destruction of alveolar structure at 10 to 20 mg/kg, ip pretreated for 30 mins followed by LPS addition measured after 6 hrs by hematoxylin and eosin staining based microscopic analysis; assay type: functional, organism-based
Mus musculus [10] = assay: Antiinflammatory activity in C57BL/6 mouse assessed as inhibition of LPS-induced IL-6 level in bronchoalveolar lavage fluid at 10 to 20 mg/kg, ip pretreated for 30 mins followed by LPS addition measured after 6 hrs; assay type: functional, organism-based
Mus musculus [11] = assay: Antiinflammatory activity in C57BL/6 mouse assessed as inhibition of LPS-induced neutrophil filtration in lung by measuring myeloperoxidase activity at 10 to 20 mg/kg, ip pretreated for 30 mins followed by LPS addition measured after 6 hrs by Giemsa staining-based assay; assay type: functional, organism-based
Peritoneal macrophage [12] = assay: Antiinflammatory activity in mouse primary peritoneal macrophages assessed as inhibition of LPS-induced VCAM-1 mRNA expression at 5 to 10 uM by RT-qPCR analysis; assay type: functional, cell-based
Mus musculus [13] = assay: Antiinflammatory activity in C57BL/6 mouse assessed as inhibition of LPS-induced IL-1beta mRNA expression in lungs at 10 to 20 mg/kg, ip by RT-qPCR analysis; assay type: functional, organism-based
Peritoneal macrophage [14] = assay: Antiinflammatory activity in mouse primary peritoneal macrophages assessed as inhibition of LPS-induced IL-6 mRNA expression at 5 to 10 uM by RT-qPCR analysis; assay type: functional, cell-based
Mus musculus [15] = assay: Antiinflammatory activity in C57BL/6 mouse assessed as inhibition of LPS-induced macrophage filtration in lung by measuring CD68 protein expression at 10 to 20 mg/kg, ip pretreated for 30 mins followed by LPS addition measured after 6 hrs by immunohistochemistry; assay type: functional, organism-based
Mus musculus [16] = assay: Antiinflammatory activity in C57BL/6 mouse assessed as inhibition of LPS-induced lung edema at 10 to 20 mg/kg, ip pretreated for 30 mins followed by LPS addition measured after 6 hrs by hematoxylin and eosin staining based microscopic analysis; assay type: functional, organism-based
Mus musculus [17] = assay: Antiinflammatory activity in C57BL/6 mouse assessed as inhibition of LPS-induced total protein level in bronchoalveolar lavage fluid at 10 to 20 mg/kg, ip pretreated for 30 mins followed by LPS addition measured after 6 hrs; assay type: functional, organism-based
Mus musculus [18] = assay: Antiinflammatory activity in C57BL/6 mouse assessed as reduction in lung wet/dry ratio at 10 to 20 mg/kg, ip pretreated for 30 mins followed by LPS addition measured after 6 hrs; assay type: functional, organism-based
Mus musculus [19] = assay: Antiinflammatory activity in C57BL/6 mouse assessed as inhibition of LPS-induced alveolar hemorrhage at 10 to 20 mg/kg, ip pretreated for 30 mins followed by LPS addition measured after 6 hrs by hematoxylin and eosin staining based microscopic analysis; assay type: functional, organism-based
Mus musculus [20] = assay: Antiinflammatory activity in C57BL/6 mouse assessed as inhibition of LPS-induced IL-6 mRNA expression in lungs at 10 to 20 mg/kg, ip by RT-qPCR analysis; assay type: functional, organism-based
Mus musculus [21] = assay: Antiinflammatory activity in C57BL/6 mouse assessed as inhibition of LPS-induced VCAM-1 mRNA expression in lungs at 10 to 20 mg/kg, ip by RT-qPCR analysis; assay type: functional, organism-based
Mus musculus [22] = assay: Antiinflammatory activity in C57BL/6 mouse assessed as inhibition of LPS-induced inflammatory cell infiltration at 10 to 20 mg/kg, ip pretreated for 30 mins followed by LPS addition measured after 6 hrs by hematoxylin and eosin staining based microscopic analysis; assay type: functional, organism-based

Question: What does the source list for `Cc1ccc(S(=O)(=O)c2cc3cc([N+](=O)[O-])ccc3n2C)cc1`?
Answer: inhibition (Peritoneal macrophage [1]): Active; Activity (Peritoneal macrophage [2]): Non-Toxic; inhibition (Peritoneal macrophage [3]): Active

Question: Which inhibition (Peritoneal macrophage [1]) does the source give for `Cc1ccc(S(=O)(=O)c2c(C)n(C)c3ccccc23)cc1` here?
Answer: Active

Question: And the Activity (Peritoneal macrophage [2])?
Answer: Non-Toxic

Question: What about the inhibition (Peritoneal macrophage [3]) of the same compound?
Answer: Active

Question: Which results are given for `Cc1ccccc1S(=O)(=O)c1cc2ccccc2n1C`?
Answer: inhibition (Peritoneal macrophage [1]): Active; Activity (Peritoneal macrophage [2]): Non-Toxic; inhibition (Peritoneal macrophage [3]): Active

Question: For `Cn1c(S(=O)(=O)c2ccc(Cl)cc2)cc2ccccc21`, which inhibition (Peritoneal macrophage [1]) is on record?
Answer: Active

Question: What about the Activity (Peritoneal macrophage [2]) of the same compound?
Answer: Non-Toxic

Question: And the inhibition (Peritoneal macrophage [3])?
Answer: Active

Question: Which inhibition (Peritoneal macrophage [1]) does the source give for `COc1ccc(S(=O)(=O)c2cc3ccccc3n2C)cc1` here?
Answer: Active

Question: And the Activity (Peritoneal macrophage [2])?
Answer: Non-Toxic

Question: And the inhibition (Peritoneal macrophage [3])?
Answer: Active

Question: What about the IC50 (Peritoneal macrophage [4]) of the same compound?
Answer: 1.12 µM

Question: What about the IC50 (Peritoneal macrophage [5]) of the same compound?
Answer: 59.4 µM

Question: Which inhibition (Peritoneal macrophage [1]) does the source give for `Cc1c(S(=O)(=O)c2ccc(C(F)(F)F)cc2)n(C)c2ccccc12` here?
Answer: Active

Question: And the Activity (Peritoneal macrophage [2])?
Answer: Non-Toxic

Question: And the inhibition (Peritoneal macrophage [3])?
Answer: Active

Question: With `Cc1ccc(S(=O)(=O)c2[nH]c3ccccc3c2I)cc1` as the compound, how does the inhibition (Peritoneal macrophage [1]) read?
Answer: Active

Question: What about the Activity (Peritoneal macrophage [2]) of the same compound?
Answer: Non-Toxic

Question: What about the inhibition (Peritoneal macrophage [3]) of the same compound?
Answer: Active

Question: Which results are given for `Cc1ccc(S(=O)(=O)c2cc3ccc(F)cc3n2C)cc1`?
Answer: inhibition (Peritoneal macrophage [1]): Active; Activity (Peritoneal macrophage [2]): Non-Toxic; inhibition (Peritoneal macrophage [3]): Active

Question: `Cn1c(S(=O)(=O)c2ccc(C(C)(C)C)cc2)cc2ccccc21` was tested. Which inhibition (Mus musculus [6]) did it give?
Answer: Active

Question: And the inhibition (Mus musculus [7])?
Answer: Active

Question: What about the inhibition at 10 µM (Peritoneal macrophage [1]) of the same compound?
Answer: 82%

Question: What about the Activity (Peritoneal macrophage [2]) of the same compound?
Answer: Non-Toxic

Question: And the inhibition (Peritoneal macrophage [8])?
Answer: Active

Question: And the inhibition at 10 µM (Peritoneal macrophage [3])?
Answer: 88%

Question: What about the inhibition (Mus musculus [9]) of the same compound?
Answer: Active

Question: What about the inhibition (Mus musculus [10]) of the same compound?
Answer: Active

Question: And the inhibition (Mus musculus [11])?
Answer: Active

Question: And the inhibition (Peritoneal macrophage [12])?
Answer: Active

Question: And the inhibition (Mus musculus [13])?
Answer: Active

Question: And the inhibition (Peritoneal macrophage [14])?
Answer: Active

Question: What about the inhibition (Mus musculus [15]) of the same compound?
Answer: Active

Question: And the IC50 (Peritoneal macrophage [4])?
Answer: 1.1 µM

Question: And the inhibition (Peritoneal macrophage [4])?
Answer: Dose-dependent effect

Question: What about the inhibition (Mus musculus [16]) of the same compound?
Answer: Active

Question: What about the inhibition (Mus musculus [17]) of the same compound?
Answer: Active

Question: What about the Activity (Mus musculus [18]) of the same compound?
Answer: Active

Question: What about the inhibition (Mus musculus [19]) of the same compound?
Answer: Active

Question: And the inhibition (Mus musculus [20])?
Answer: Active

Question: And the inhibition (Mus musculus [21])?
Answer: Active

Question: And the IC50 (Peritoneal macrophage [5])?
Answer: 3.08 µM

Question: And the inhibition (Peritoneal macrophage [5])?
Answer: Dose-dependent effect

Question: And the inhibition (Mus musculus [22])?
Answer: Active

Question: What does the source list for `Cn1c(S(C)(=O)=O)cc2ccccc21`?
Answer: inhibition (Peritoneal macrophage [1]): Active; Activity (Peritoneal macrophage [2]): Non-Toxic; inhibition (Peritoneal macrophage [3]): Active

Question: With `CCCCn1c(S(=O)(=O)c2ccc(C)cc2)cc2ccccc21` as the compound, how does the inhibition (Peritoneal macrophage [1]) read?
Answer: Active

Question: What about the Activity (Peritoneal macrophage [2]) of the same compound?
Answer: Non-Toxic

Question: What about the inhibition (Peritoneal macrophage [3]) of the same compound?
Answer: Active

Question: With `CCn1c(-c2ccccc2)c(S(=O)(=O)c2ccc(C)cc2)c2ccccc21` as the compound, how does the inhibition (Peritoneal macrophage [1]) read?
Answer: Active

Question: And the Activity (Peritoneal macrophage [2])?
Answer: Non-Toxic

Question: And the inhibition (Peritoneal macrophage [3])?
Answer: Active

Question: Which inhibition (Peritoneal macrophage [1]) does the source give for `Cc1ccc(S(=O)(=O)c2[nH]c3cc(C)ccc3c2I)cc1` here?
Answer: Active

Question: What about the Activity (Peritoneal macrophage [2]) of the same compound?
Answer: Non-Toxic

Question: And the inhibition (Peritoneal macrophage [3])?
Answer: Active

Question: With `Cn1c(S(=O)(=O)c2cccs2)cc2ccccc21` as the compound, how does the inhibition (Peritoneal macrophage [1]) read?
Answer: Active

Question: What about the Activity (Peritoneal macrophage [2]) of the same compound?
Answer: Non-Toxic

Question: What about the inhibition (Peritoneal macrophage [3]) of the same compound?
Answer: Active

Question: Which inhibition (Peritoneal macrophage [1]) does the source give for `COc1ccc(S(=O)(=O)c2[nH]c3cc(C)ccc3c2I)cc1` here?
Answer: Active

Question: And the Activity (Peritoneal macrophage [2])?
Answer: Non-Toxic

Question: What about the inhibition (Peritoneal macrophage [3]) of the same compound?
Answer: Active

Question: How did the inhibition (Peritoneal macrophage [1]) turn out when `Cc1ccc(S(=O)(=O)c2cc3cc(Br)ccc3n2C)cc1` was run?
Answer: Active

Question: What about the Activity (Peritoneal macrophage [2]) of the same compound?
Answer: Non-Toxic

Question: And the inhibition (Peritoneal macrophage [3])?
Answer: Active
